{"source": "patent US9896457B2", "about": "“Microbial product having antifungal activity” (OP BIO FACTORY CO., LTD., priority 2013, dated 2018)", "key": {"Candida spp.": {"tested_on": "Candida spp.", "experiment": "Antifungal agent sensitivity test, MIC by trace liquid dilution method (yeast-like fungi FP 'Eiken')", "format": "cell-based", "settings": "numeric MIC (μg/mL) only in FIG. 2", "experimental": "(§1) Minimum inhibitory concentration (MIC) was measured by the trace liquid dilution method. The measurement was performed using yeast-like fungi FP ‘Eiken’ (Eiken Chemical Co., Ltd.) and according to the manual of the product."}, "Aspergillus spp.": {"tested_on": "Aspergillus spp.", "experiment": "Antifungal agent sensitivity test, MIC by trace liquid dilution method (yeast-like fungi FP 'Eiken')", "format": "cell-based", "settings": "numeric MIC (μg/mL) only in FIG. 2", "experimental": "as §1"}}}
{"smiles": "CC=C(Cc1ccccc1)C12CC(O)CCN1O2", "note": "(centres unmarked)", "values": [{"measurement": "antifungal activity (MIC), result in words", "setting": "Candida spp.", "value": "good activity"}, {"measurement": "antifungal activity (MIC), result in words", "setting": "Aspergillus spp.", "value": "good activity"}]}
